According to PMC6131539, “Behavioral Effects of a Potential Novel TAAR1 Antagonist” (Frontiers in Pharmacology, 2018):

Key:
Test in all cases: PDSP binding, primary screen
M1 = target: T1, M1 (Homo sapiens, UniProt P11229)
T1 construct: purchased NIMH Psychoactive Drug Screening Program (PDSP), University of North Carolina-Chapel Hill
Procedure: (§1) This was achieved through the identification of potential pharmacological targets of compound 22 using the Psychoactive Drug Screening Program (PDSP) at University of North Carolina-Chapel-Hill. PDSP provides a platform for screening novel psychoactive compounds on human proteins expressed in the central nervous system in order to identify their biological target(s) ([Besnard et al., 2012]). Binding studies were done on 47 targets at a single dose of compound 22 (10 μM; Supplementary Table S1). This primary screen yielded a total of 5 hits for compound 22 (Table 2). These hits were the serotonin, dopamine, and norepinephrine transporters, as well as the sigma 1 and sigma 2 receptors.
(§2) Supplemental Table 1. Compound 22 binding studies from PDSP: primary screen for compound 22 and subsequent hits (50% cut-off, hits highlighted in red). The primary screen was performed by PDSP as described previously (Besnard et al., 2012).

5-ht5a = target: T2, 5-ht5a (Homo sapiens, UniProt P47898)
T2 construct: purchased NIMH Psychoactive Drug Screening Program (PDSP), University of North Carolina-Chapel Hill
Procedure: as §1, §2

Alpha1A = target: T3, Alpha1A (Homo sapiens, UniProt P35348)
T3 construct: purchased NIMH Psychoactive Drug Screening Program (PDSP), University of North Carolina-Chapel Hill
Procedure: as §1, §2

NET = target: T4, NET (Homo sapiens, UniProt P23975)
T4 construct: purchased NIMH Psychoactive Drug Screening Program (PDSP), University of North Carolina-Chapel Hill
Procedure: as §1, §2

M2 = target: T5, M2 (Homo sapiens, UniProt P08172)
T5 construct: purchased NIMH Psychoactive Drug Screening Program (PDSP), University of North Carolina-Chapel Hill
Procedure: as §1, §2

Beta2 = target: T6, Beta2 (Homo sapiens, UniProt P07550)
T6 construct: purchased NIMH Psychoactive Drug Screening Program (PDSP), University of North Carolina-Chapel Hill
Procedure: as §1, §2

5-HT2C = target: T7, 5-HT2C (Homo sapiens, UniProt P28335)
T7 construct: purchased NIMH Psychoactive Drug Screening Program (PDSP), University of North Carolina-Chapel Hill
Procedure: as §1, §2

D5 = target: T8, D5 (Homo sapiens, UniProt P21918)
T8 construct: purchased NIMH Psychoactive Drug Screening Program (PDSP), University of North Carolina-Chapel Hill
Procedure: as §1, §2

H4 = target: T9, H4 (Homo sapiens, UniProt Q9H3N8)
T9 construct: purchased NIMH Psychoactive Drug Screening Program (PDSP), University of North Carolina-Chapel Hill
Procedure: as §1, §2

Beta3 = target: T10, Beta3 (Homo sapiens, UniProt P13945)
T10 construct: purchased NIMH Psychoactive Drug Screening Program (PDSP), University of North Carolina-Chapel Hill
Procedure: as §1, §2

5-HT7 = target: T11, 5-HT7 (Homo sapiens, UniProt P34969)
T11 construct: purchased NIMH Psychoactive Drug Screening Program (PDSP), University of North Carolina-Chapel Hill
Procedure: as §1, §2

5-HT6 = target: T12, 5-HT6 (Homo sapiens, UniProt P50406)
T12 construct: purchased NIMH Psychoactive Drug Screening Program (PDSP), University of North Carolina-Chapel Hill
Procedure: as §1, §2

Alpha2A = target: T13, Alpha2A (Homo sapiens, UniProt P08913)
T13 construct: purchased NIMH Psychoactive Drug Screening Program (PDSP), University of North Carolina-Chapel Hill
Procedure: as §1, §2

5-HT2A = target: T14, 5-HT2A (Homo sapiens, UniProt P28223)
T14 construct: purchased NIMH Psychoactive Drug Screening Program (PDSP), University of North Carolina-Chapel Hill
Procedure: as §1, §2

5-HT1A = target: T15, 5-HT1A (Homo sapiens, UniProt P08908)
T15 construct: purchased NIMH Psychoactive Drug Screening Program (PDSP), University of North Carolina-Chapel Hill
Procedure: as §1, §2

SERT = target: T16, SERT (Homo sapiens, UniProt P31645)
T16 construct: purchased NIMH Psychoactive Drug Screening Program (PDSP), University of North Carolina-Chapel Hill
Procedure: as §1, §2

D1 = target: T17, D1 (Homo sapiens, UniProt P21728)
T17 construct: purchased NIMH Psychoactive Drug Screening Program (PDSP), University of North Carolina-Chapel Hill
Procedure: as §1, §2

M3 = target: T18, M3 (Homo sapiens, UniProt P20309)
T18 construct: purchased NIMH Psychoactive Drug Screening Program (PDSP), University of North Carolina-Chapel Hill
Procedure: as §1, §2

M5 = target: T19, M5 (Homo sapiens, UniProt P08912)
T19 construct: purchased NIMH Psychoactive Drug Screening Program (PDSP), University of North Carolina-Chapel Hill
Procedure: as §1, §2

Alpha2C = target: T20, Alpha2C (Homo sapiens, UniProt P18825)
T20 construct: purchased NIMH Psychoactive Drug Screening Program (PDSP), University of North Carolina-Chapel Hill
Procedure: as §1, §2

DAT = target: T21, DAT (Homo sapiens, UniProt Q01959)
T21 construct: purchased NIMH Psychoactive Drug Screening Program (PDSP), University of North Carolina-Chapel Hill
Procedure: as §1, §2

H3 = target: T22, H3 (Homo sapiens, UniProt Q9Y5N1)
T22 construct: purchased NIMH Psychoactive Drug Screening Program (PDSP), University of North Carolina-Chapel Hill
Procedure: as §1, §2

Alpha1B = target: T23, Alpha1B (Homo sapiens, UniProt P35368)
T23 construct: purchased NIMH Psychoactive Drug Screening Program (PDSP), University of North Carolina-Chapel Hill
Procedure: as §1, §2

5-HT1E = target: T24, 5-HT1E (Homo sapiens, UniProt P28566)
T24 construct: purchased NIMH Psychoactive Drug Screening Program (PDSP), University of North Carolina-Chapel Hill
Procedure: as §1, §2

5-HT1B = target: T25, 5-HT1B (Homo sapiens, UniProt P28222)
T25 construct: purchased NIMH Psychoactive Drug Screening Program (PDSP), University of North Carolina-Chapel Hill
Procedure: as §1, §2

5-HT1D = target: T26, 5-HT1D (Homo sapiens, UniProt P28221)
T26 construct: purchased NIMH Psychoactive Drug Screening Program (PDSP), University of North Carolina-Chapel Hill
Procedure: as §1, §2

Beta1 = target: T27, Beta1 (Homo sapiens, UniProt P08588)
T27 construct: purchased NIMH Psychoactive Drug Screening Program (PDSP), University of North Carolina-Chapel Hill
Procedure: as §1, §2

5-HT2B = target: T28, 5-HT2B (Homo sapiens, UniProt P41595)
T28 construct: purchased NIMH Psychoactive Drug Screening Program (PDSP), University of North Carolina-Chapel Hill
Procedure: as §1, §2

D2 = target: T29, D2 (Homo sapiens, UniProt P14416)
T29 construct: purchased NIMH Psychoactive Drug Screening Program (PDSP), University of North Carolina-Chapel Hill
Procedure: as §1, §2

KOR = target: T30, KOR (Homo sapiens, UniProt P41145)
T30 construct: purchased NIMH Psychoactive Drug Screening Program (PDSP), University of North Carolina-Chapel Hill
Procedure: as §1, §2

Sigma 1 = target: T31, Sigma 1 (Homo sapiens, UniProt Q99720)
T31 construct: purchased NIMH Psychoactive Drug Screening Program (PDSP), University of North Carolina-Chapel Hill
Procedure: as §1, §2

D3 = target: T32, D3 (Homo sapiens, UniProt P35462)
T32 construct: purchased NIMH Psychoactive Drug Screening Program (PDSP), University of North Carolina-Chapel Hill
Procedure: as §1, §2

5-HT3 = target: T33, 5-HT3 (Homo sapiens, UniProt P46098)
T33 construct: purchased NIMH Psychoactive Drug Screening Program (PDSP), University of North Carolina-Chapel Hill
Procedure: as §1, §2

Alpha1D = target: T34, Alpha1D (Homo sapiens, UniProt P25100)
T34 construct: purchased NIMH Psychoactive Drug Screening Program (PDSP), University of North Carolina-Chapel Hill
Procedure: as §1, §2

D4 = target: T35, D4 (Homo sapiens, UniProt P21917)
T35 construct: purchased NIMH Psychoactive Drug Screening Program (PDSP), University of North Carolina-Chapel Hill
Procedure: as §1, §2

DOR = target: T36, DOR (Homo sapiens, UniProt P41143)
T36 construct: purchased NIMH Psychoactive Drug Screening Program (PDSP), University of North Carolina-Chapel Hill
Procedure: as §1, §2

M4 = target: T37, M4 (Homo sapiens, UniProt P08173)
T37 construct: purchased NIMH Psychoactive Drug Screening Program (PDSP), University of North Carolina-Chapel Hill
Procedure: as §1, §2

H2 = target: T38, H2 (Homo sapiens, UniProt P25021)
T38 construct: purchased NIMH Psychoactive Drug Screening Program (PDSP), University of North Carolina-Chapel Hill
Procedure: as §1, §2

Alpha2B = target: T39, Alpha2B (Homo sapiens, UniProt P18089)
T39 construct: purchased NIMH Psychoactive Drug Screening Program (PDSP), University of North Carolina-Chapel Hill
Procedure: as §1, §2

MOR = target: T40, MOR (Homo sapiens, UniProt P35372)
T40 construct: purchased NIMH Psychoactive Drug Screening Program (PDSP), University of North Carolina-Chapel Hill
Procedure: as §1, §2

H1 = target: T41, H1 (Homo sapiens, UniProt P35367)
T41 construct: purchased NIMH Psychoactive Drug Screening Program (PDSP), University of North Carolina-Chapel Hill
Procedure: as §1, §2

T30 sequence (P41145 whole entry): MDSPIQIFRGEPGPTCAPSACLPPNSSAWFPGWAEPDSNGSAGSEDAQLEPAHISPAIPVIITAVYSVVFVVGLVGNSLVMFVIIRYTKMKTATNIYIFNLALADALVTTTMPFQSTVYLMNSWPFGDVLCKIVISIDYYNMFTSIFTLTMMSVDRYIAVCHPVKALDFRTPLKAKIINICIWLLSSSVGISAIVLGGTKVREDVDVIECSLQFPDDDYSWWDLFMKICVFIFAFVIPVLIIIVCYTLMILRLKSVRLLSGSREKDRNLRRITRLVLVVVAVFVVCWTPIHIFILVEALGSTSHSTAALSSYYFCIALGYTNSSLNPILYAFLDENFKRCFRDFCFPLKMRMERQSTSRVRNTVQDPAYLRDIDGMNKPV
T18 sequence (P20309 whole entry): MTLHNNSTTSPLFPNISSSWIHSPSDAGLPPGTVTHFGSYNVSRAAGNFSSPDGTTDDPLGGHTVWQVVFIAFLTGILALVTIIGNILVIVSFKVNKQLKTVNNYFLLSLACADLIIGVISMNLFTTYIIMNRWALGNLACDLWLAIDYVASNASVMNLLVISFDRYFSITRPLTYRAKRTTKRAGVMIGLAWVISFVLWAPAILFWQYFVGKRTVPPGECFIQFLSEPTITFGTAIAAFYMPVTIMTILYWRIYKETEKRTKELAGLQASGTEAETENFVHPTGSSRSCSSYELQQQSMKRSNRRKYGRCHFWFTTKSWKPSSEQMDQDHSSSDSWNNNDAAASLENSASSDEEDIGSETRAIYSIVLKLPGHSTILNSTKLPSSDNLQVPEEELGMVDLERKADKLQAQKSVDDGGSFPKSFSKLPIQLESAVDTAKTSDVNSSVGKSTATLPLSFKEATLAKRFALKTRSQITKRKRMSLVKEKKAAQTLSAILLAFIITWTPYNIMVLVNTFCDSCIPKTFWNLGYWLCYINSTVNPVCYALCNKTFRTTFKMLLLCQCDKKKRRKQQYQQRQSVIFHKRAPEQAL
T37 sequence (P08173 whole entry): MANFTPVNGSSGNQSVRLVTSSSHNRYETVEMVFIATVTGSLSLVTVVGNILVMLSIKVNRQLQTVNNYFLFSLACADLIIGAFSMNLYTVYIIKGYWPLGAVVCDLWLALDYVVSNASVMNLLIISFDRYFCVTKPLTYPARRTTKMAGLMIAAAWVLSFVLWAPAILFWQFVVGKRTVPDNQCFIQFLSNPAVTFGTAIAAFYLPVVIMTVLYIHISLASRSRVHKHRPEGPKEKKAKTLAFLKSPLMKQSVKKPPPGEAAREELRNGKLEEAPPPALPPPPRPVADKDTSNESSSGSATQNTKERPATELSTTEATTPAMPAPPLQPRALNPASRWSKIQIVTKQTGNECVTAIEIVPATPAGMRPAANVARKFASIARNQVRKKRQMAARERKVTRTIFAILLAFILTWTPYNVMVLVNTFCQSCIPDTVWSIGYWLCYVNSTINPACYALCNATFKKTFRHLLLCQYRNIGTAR
T5 sequence (P08172 whole entry): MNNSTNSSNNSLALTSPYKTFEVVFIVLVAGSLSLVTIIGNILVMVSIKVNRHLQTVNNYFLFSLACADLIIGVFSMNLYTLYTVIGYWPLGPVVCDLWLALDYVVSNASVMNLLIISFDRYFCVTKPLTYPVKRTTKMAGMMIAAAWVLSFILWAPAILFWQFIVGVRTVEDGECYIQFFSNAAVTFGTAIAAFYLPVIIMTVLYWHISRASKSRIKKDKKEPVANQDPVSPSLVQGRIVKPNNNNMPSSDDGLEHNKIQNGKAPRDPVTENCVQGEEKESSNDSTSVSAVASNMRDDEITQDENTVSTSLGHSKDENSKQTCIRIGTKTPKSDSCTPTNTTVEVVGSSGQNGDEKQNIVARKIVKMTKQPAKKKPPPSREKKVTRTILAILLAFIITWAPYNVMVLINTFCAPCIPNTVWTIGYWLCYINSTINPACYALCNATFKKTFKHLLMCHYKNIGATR
T3 sequence (P35348 whole entry): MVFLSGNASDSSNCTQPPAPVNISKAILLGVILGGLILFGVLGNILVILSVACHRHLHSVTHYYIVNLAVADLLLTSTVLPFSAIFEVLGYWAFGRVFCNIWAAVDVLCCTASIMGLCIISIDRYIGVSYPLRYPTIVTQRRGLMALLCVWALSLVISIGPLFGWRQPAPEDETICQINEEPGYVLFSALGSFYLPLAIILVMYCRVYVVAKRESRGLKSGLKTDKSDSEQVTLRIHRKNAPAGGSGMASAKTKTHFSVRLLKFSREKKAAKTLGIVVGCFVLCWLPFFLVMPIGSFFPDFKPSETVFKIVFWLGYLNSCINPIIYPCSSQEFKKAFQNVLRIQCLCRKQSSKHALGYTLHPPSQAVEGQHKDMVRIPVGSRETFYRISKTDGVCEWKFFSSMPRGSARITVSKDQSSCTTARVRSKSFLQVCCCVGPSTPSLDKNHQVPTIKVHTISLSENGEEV
T13 sequence (P08913 whole entry): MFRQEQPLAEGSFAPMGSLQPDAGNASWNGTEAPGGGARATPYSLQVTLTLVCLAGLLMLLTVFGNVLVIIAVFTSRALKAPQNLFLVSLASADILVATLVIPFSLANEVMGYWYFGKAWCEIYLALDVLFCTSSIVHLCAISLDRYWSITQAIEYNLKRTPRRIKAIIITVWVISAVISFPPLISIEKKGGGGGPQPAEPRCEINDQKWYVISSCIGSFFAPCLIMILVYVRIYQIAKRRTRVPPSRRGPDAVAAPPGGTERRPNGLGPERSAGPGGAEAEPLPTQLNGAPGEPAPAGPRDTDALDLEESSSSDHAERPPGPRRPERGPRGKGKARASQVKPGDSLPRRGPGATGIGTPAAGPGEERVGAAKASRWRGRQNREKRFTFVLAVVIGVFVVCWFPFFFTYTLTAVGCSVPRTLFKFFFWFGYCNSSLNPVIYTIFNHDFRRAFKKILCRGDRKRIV
T4 sequence (P23975 whole entry): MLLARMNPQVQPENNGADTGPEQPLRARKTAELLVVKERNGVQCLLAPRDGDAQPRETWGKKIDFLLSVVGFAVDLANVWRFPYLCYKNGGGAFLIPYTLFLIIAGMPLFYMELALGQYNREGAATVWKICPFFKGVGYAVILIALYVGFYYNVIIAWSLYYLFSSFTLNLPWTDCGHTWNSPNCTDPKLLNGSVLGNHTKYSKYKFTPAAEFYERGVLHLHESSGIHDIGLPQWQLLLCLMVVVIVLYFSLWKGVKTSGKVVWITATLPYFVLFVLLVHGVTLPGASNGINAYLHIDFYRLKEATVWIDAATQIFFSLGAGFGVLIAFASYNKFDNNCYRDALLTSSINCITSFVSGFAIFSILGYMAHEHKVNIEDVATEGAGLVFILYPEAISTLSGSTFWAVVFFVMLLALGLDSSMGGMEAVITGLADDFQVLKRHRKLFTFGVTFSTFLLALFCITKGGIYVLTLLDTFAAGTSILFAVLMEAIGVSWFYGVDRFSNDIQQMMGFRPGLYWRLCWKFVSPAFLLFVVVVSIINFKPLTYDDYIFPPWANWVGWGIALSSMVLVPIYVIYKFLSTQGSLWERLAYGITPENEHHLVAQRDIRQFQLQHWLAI
T41 sequence (P35367 whole entry): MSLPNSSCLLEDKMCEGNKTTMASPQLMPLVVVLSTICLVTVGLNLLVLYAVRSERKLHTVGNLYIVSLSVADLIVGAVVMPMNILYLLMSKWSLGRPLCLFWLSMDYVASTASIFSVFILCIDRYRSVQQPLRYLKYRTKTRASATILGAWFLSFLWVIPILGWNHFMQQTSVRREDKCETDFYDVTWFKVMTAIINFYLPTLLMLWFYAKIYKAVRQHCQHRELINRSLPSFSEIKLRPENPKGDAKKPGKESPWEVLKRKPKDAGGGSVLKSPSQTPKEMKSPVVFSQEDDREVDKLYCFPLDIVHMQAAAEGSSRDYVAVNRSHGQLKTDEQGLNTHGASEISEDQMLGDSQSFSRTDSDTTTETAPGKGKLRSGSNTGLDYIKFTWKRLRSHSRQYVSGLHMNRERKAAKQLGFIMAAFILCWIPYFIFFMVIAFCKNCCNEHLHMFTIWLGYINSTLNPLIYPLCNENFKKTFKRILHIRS
T40 sequence (P35372 whole entry): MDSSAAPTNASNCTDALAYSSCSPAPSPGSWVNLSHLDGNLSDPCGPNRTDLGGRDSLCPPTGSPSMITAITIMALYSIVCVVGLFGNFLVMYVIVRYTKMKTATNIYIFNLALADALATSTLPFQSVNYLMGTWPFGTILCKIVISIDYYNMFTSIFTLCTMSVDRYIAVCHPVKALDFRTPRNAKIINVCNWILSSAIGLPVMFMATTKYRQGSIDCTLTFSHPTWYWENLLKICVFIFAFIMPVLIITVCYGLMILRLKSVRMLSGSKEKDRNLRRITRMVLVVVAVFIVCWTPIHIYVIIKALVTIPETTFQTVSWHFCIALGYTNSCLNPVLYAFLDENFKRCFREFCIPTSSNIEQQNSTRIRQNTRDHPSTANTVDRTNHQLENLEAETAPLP
T15 sequence (P08908 whole entry): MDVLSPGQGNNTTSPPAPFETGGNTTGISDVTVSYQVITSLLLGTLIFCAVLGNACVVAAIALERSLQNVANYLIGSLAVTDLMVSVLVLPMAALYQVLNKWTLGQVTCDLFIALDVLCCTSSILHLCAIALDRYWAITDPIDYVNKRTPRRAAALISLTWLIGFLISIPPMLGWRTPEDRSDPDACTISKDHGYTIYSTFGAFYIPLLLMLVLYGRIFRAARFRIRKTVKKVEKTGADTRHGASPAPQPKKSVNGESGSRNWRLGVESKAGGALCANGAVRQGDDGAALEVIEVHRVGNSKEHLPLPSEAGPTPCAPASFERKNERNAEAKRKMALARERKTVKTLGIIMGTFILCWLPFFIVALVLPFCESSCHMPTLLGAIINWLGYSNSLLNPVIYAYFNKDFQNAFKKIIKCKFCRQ

Clc1ccc(CNCc2ccc(Cn3cncn3)cc2)c(Cl)c1 [compound 22]
inhibition at 10 µM (M1): 18.3%
inhibition at 10 µM (5-ht5a): 15.3%
inhibition at 10 µM (Alpha1A): -13.9%
inhibition at 10 µM (NET): 93.4%
inhibition at 10 µM (M2): 7.1%
inhibition at 10 µM (Beta2): -0.6%
inhibition at 10 µM (5-HT2C): 18.5%
inhibition at 10 µM (D5): -6.8%
inhibition at 10 µM (H4): -9.8%
inhibition at 10 µM (Beta3): -9.1%
inhibition at 10 µM (5-HT7): 20.2%
inhibition at 10 µM (5-HT6): 4.6%
inhibition at 10 µM (Alpha2A): 32.4%
inhibition at 10 µM (5-HT2A): 2.1%
inhibition at 10 µM (5-HT1A): 9.3%
inhibition at 10 µM (SERT): 57.3%
inhibition at 10 µM (D1): 16.1%
inhibition at 10 µM (M3): 15.5%
inhibition at 10 µM (M5): 1.4%
inhibition at 10 µM (Alpha2C): -4.3%
inhibition at 10 µM (DAT): 60.5%
inhibition at 10 µM (H3): 17.8%
inhibition at 10 µM (Alpha1B): 12.8%
inhibition at 10 µM (5-HT1E): -1.7%
inhibition at 10 µM (5-HT1B): -13.5%
inhibition at 10 µM (5-HT1D): 9.7%
inhibition at 10 µM (Beta1): -3.5%
inhibition at 10 µM (5-HT2B): 6.7%
inhibition at 10 µM (D2): 36.7%
inhibition at 10 µM (KOR): -10.2%
inhibition at 10 µM (Sigma 1): 93.2%
inhibition at 10 µM (D3): 9.4%
inhibition at 10 µM (5-HT3): 6%
inhibition at 10 µM (Alpha1D): 11.6%
inhibition at 10 µM (D4): 17.6%
inhibition at 10 µM (DOR): 6.2%
inhibition at 10 µM (M4): 15.9%
inhibition at 10 µM (H2): 45.2%
inhibition at 10 µM (Alpha2B): 22.6%
inhibition at 10 µM (MOR): -3.7%
inhibition at 10 µM (H1): 6.3%
